Measurements as given in ChEMBL document CHEMBL1151286, “Nostocarboline: isolation and synthesis of a new cholinesterase inhibitor from Nostoc 78-12A” (J Nat Prod, 2005).
“And” between values parts separate entries of the source, which are not always exact repeats. Equal entries are not always repeated.

Target: Cholinesterase (Equus caballus, UniProt P81908)
Test: Inhibition of horse serum BChE by Ellman's reaction

Cholinesterase, sequence (P81908 whole entry): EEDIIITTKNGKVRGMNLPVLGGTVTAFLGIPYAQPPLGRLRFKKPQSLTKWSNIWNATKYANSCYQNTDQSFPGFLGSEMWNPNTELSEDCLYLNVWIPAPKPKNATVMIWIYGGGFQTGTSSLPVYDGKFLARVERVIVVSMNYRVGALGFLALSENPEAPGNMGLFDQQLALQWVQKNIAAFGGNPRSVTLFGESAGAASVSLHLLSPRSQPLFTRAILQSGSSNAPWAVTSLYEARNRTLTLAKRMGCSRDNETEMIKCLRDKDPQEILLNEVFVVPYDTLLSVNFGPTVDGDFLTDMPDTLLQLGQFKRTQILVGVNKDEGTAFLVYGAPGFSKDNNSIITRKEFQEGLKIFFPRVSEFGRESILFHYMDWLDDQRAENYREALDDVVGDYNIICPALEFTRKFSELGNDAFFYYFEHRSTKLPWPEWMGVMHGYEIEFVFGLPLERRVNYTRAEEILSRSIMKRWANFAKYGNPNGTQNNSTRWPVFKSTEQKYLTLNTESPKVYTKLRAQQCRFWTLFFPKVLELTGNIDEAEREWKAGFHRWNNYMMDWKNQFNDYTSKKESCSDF

Row | Structure (SMILES) | IC50
1 | C[n+]1ccc2c(c1)[nH]c1ccccc12 | 11.2 µM
2 | C[n+]1ccc2c(c1)[nH]c1ccc(Cl)cc12 [NOSTOCARBOLINE] | 19.4 µM and 13.2 µM
